In ChEMBL document CHEMBL4428109, “Structure-activity relationship studies of non-carboxylic acid peroxisome proliferator-activated receptor α/δ (PPARα/δ) dual agonists” (Bioorg Med Chem, 2016):
Active and inactive are the calls of the source. The rule behind the calls is not given here.

Columns and labels:
[1] = target: T1, Retinoic acid receptor RXR-alpha (Homo sapiens) (UniProt P19793); experiment: Agonist activity at RXRalpha (unknown origin) at < 20 uM
T1 sequence (whole entry): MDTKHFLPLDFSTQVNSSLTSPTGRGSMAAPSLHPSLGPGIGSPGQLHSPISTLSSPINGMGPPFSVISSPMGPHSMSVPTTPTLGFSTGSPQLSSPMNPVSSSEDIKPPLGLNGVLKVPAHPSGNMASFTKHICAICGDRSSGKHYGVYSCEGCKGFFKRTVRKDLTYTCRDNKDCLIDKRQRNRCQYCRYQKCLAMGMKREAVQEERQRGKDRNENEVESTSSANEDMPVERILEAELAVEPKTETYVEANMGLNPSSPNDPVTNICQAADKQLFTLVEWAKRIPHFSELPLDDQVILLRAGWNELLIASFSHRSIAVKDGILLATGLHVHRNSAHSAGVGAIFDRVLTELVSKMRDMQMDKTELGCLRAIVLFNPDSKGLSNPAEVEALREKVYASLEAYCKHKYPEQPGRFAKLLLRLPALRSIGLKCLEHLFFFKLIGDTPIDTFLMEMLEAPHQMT

[2] = target: T2, Oxysterols receptor LXR-beta (Homo sapiens) (UniProt P55055); experiment: Agonist activity at LXRbeta (unknown origin) at < 20 uM
T2 sequence (whole entry): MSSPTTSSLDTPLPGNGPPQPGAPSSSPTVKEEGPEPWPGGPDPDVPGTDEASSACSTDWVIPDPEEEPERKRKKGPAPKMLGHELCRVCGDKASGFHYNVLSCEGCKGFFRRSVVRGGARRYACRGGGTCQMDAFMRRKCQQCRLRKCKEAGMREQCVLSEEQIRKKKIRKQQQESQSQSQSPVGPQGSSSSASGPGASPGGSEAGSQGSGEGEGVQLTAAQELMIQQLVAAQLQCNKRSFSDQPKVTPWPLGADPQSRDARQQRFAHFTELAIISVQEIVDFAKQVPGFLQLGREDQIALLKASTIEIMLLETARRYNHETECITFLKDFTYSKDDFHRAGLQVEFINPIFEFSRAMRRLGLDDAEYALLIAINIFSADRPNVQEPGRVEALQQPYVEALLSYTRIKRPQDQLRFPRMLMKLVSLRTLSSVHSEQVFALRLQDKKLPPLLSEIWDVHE

[3] = target: T3, Retinoic acid receptor RXR-gamma (Homo sapiens) (UniProt P48443); experiment: Agonist activity at RXRgamma (unknown origin) at < 20 uM
T3 sequence (whole entry): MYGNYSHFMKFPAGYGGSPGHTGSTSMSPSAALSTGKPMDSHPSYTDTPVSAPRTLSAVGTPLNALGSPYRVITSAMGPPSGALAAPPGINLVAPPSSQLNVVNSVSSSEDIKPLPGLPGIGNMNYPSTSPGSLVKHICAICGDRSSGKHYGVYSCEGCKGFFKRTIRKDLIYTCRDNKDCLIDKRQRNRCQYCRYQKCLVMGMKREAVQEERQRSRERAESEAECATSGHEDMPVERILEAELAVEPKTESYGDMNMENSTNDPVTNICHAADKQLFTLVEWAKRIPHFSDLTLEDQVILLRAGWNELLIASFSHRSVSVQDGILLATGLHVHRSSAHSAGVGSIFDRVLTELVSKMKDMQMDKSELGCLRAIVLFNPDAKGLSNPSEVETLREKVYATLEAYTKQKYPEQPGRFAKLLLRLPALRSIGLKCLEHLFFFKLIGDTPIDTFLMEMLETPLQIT

[4] = target: T4, Oxysterols receptor LXR-alpha (Homo sapiens) (UniProt Q13133); experiment: Agonist activity at LXRalpha (unknown origin) at < 20 uM
T4 sequence (whole entry): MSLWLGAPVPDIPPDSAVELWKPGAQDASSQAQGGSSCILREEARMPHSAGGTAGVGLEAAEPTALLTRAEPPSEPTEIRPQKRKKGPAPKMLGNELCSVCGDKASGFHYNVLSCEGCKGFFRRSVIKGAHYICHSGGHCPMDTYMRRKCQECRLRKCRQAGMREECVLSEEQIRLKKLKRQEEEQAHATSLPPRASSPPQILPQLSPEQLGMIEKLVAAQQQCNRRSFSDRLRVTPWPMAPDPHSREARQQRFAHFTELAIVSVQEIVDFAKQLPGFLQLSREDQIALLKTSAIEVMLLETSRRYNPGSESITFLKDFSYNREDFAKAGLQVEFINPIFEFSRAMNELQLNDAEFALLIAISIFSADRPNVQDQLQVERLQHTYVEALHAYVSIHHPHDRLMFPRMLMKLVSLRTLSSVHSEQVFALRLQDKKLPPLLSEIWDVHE

[5] = target: T5, Peroxisome proliferator-activated receptor alpha (Homo sapiens) (UniProt Q07869); experiment: Agonist activity at N-terminal Gal4 fused human PPARalpha LBD transfected in HEK293 cells after 24 hrs by luciferase reporter gene assay relative to GW7647; assay type: cell-based
T5 sequence (whole entry): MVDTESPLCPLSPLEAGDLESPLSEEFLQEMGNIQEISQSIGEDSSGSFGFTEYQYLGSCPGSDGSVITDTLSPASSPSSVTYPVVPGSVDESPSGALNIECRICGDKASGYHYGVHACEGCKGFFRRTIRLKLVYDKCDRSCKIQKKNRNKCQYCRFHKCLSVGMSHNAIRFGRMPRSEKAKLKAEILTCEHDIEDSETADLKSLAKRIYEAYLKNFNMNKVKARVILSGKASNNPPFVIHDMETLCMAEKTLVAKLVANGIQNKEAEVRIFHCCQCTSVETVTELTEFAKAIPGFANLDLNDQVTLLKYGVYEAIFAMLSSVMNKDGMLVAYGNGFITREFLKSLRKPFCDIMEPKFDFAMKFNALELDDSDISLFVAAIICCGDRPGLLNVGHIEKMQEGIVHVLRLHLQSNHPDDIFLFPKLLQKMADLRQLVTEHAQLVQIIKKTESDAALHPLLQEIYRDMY

[6] = target: T6, Bile acid receptor (Homo sapiens) (UniProt Q96RI1); experiment: Agonist activity at FXR (unknown origin) at < 20 uM
T6 sequence (whole entry): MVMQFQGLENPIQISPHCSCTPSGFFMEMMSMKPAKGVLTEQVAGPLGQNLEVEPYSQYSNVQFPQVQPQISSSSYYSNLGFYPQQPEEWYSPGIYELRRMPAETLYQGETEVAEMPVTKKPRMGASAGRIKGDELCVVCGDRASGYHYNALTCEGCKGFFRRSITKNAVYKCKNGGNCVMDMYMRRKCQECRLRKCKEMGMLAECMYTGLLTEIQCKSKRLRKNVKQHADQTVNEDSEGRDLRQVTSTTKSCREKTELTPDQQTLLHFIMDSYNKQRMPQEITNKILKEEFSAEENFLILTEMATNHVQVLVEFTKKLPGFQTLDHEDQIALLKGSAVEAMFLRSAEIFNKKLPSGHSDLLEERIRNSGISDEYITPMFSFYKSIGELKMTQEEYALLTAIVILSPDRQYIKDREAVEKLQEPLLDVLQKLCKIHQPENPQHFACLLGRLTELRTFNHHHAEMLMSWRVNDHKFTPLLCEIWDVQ

Activity [1]: inactive | Activity [2]: inactive | Activity [3]: inactive | Activity [4]: inactive | Emax [5]: 16 to 35% | Activity [6]: inactive
Structure (SMILES): CC(=O)NC(C)c1nc(-c2ccc(Oc3ccc(OCc4ccccc4)cc3)cc2)no1 (stereo unspecified)
